Laboratory results reported in patent US7192746B2, “α-Isomaltosyltransferase, process for producing the same and use thereof” (Kabushiki Kaisha Hayashibara Seibutsu Kagaku Kenkyujo, priority 2000, dated 2007).

Experiments:
Type in all cases: biochemical
[1] = test system: α-isomaltosyl-transferring enzyme from Bacillus globisporus C11; assay: Formation of cyclotetrasaccharide from components A, B and C; conditions: Enzyme of Strain C11; for Saccharide composition, remaining Substrate: 1% (w/v) substrate, pH 6.0, 1 unit/g substrate; for Saccharide composition, remaining Substrate / Saccharide composition, Cyclotetrasaccharide / Saccharide composition, Glucose / Saccharide composition, Others: 35° C., 8 hours
Procedure: (§1) Using a purified α-isomaltosyl-transferring enzyme, the formation of cyclotetrasaccharide from the above-identified components A, B and C was examined as follows: One percent (w/v) of an aqueous solution (pH 6.0) of the component A (3-O-α-isomaltosylpanose represented by Chemical Formula 1), the component B (4-O-α-isomaltosylpanose represented by Chemical Formula 2), or the component C (1-O-α-isomaltosyl-β-panoside represented by Chemical Formula 3) was prepared into a substrate solution. To each of the resulting solutions was added one unit/g substrate of a purified specimen of α-isomaltosyl-transferring enzyme from Bacillus globisporus C9 obtained by the method in Experiment 4, or Bacillus globisporus C11 obtained by the method in Experiment 7, followed by enzymatic reaction at 35° C. for eight hours. Thereafter, the resulting mixtures were analyzed on HPLC for saccharide composition (%).

[2] = test system: α-isomaltosyl-transferring enzyme from Bacillus globisporus C9; assay: as above; conditions: Enzyme of Strain C9; for Saccharide composition, remaining Substrate: 1% (w/v) substrate, pH 6.0, 1 unit/g substrate; for Saccharide composition, remaining Substrate / Saccharide composition, Cyclotetrasaccharide / Saccharide composition, Glucose / Saccharide composition, Others: 35° C., 8 hours
Procedure: as §1

[3] = test system: α-isomaltosyl-transferring enzyme from Arthrobacter globiformis A19; assay: Action on saccharides (substrates, TLC); parameters: key: −: there was found no substrate change before and after the enzymatic reaction; +: there were found both the reduction of substrate and the formation of cyclotetrasaccharide after the enzymatic reaction; conditions: partially purified enzyme, 2 units/g substrate, 2% (w/v) substrate, 30° C., pH 6.0, 24 hours
Summary of the method: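 Each candidate saccharide, from malto- and isomalto-oligosaccharides to cyclodextrins, starch, pullulan and dextran, was prepared at 2% (w/v). Two units/g substrate of enzyme were added, then the mixture was held at pH 6.0, 30° C., 24 hours. Samples were then analysed by silica gel TLC.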

[4] = test system: α-isomaltosyl-transferring enzyme from Arthrobacter ramosus S1; assay: Action on saccharides (substrates, TLC); parameters: key: −: there was found no substrate change before and after the enzymatic reaction; +: there were found both the reduction of substrate and the formation of cyclotetrasaccharide after the enzymatic reaction; conditions: 2 units/g substrate, 2% (w/v) substrate, 30° C., pH 6.0, 24 hours
Summary of the method: (§2)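 We incubate purified enzyme (2 units/g substrate) with 2% (w/v) saccharide for 24 h at 30° C., pH 6.0. Pre- and post-reaction samples are then compared on silica TLC.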

[5] = test system: α-isomaltosyl-transferring enzyme from Bacillus globisporus C11; assay: Action on saccharides (substrates, TLC); parameters: key: −: there was found no substrate change before and after the enzymatic reaction; +: there were found both the reduction of substrate and the formation of cyclotetrasaccharide after the enzymatic reaction; conditions: 2 units/g substrate, 2% (w/v) substrate, 30° C., pH 6.0, 24 hours
Summary of the method: as §2

[6] = test system: α-isomaltosyl-transferring enzyme from Bacillus globisporus C9; assay: Action on saccharides (substrates, TLC); parameters: key: −: there was found no substrate change before and after the enzymatic reaction; +: there were found both the reduction of substrate and the formation of cyclotetrasaccharide after the enzymatic reaction; conditions: 2 units/g substrate, 2% (w/v) substrate, 30° C., pH 6.0, 24 hours
Summary of the method: as §2

[7] = test system: α-isomaltosyl-transferring enzyme from Bacillus globisporus N75; assay: Action on saccharides (substrates, TLC); parameters: key: −: there was found no substrate change before and after the enzymatic reaction; +: there were found both the reduction of substrate and the formation of cyclotetrasaccharide after the enzymatic reaction; conditions: 2 units/g substrate, 2% (w/v) substrate, 30° C., pH 6.0, 24 hours
Summary of the method: as §2

[8] = test system: α-isomaltosyl-transferring enzyme from Bacillus globisporus C11; assay: Formation of reducing power from high molecular glucans; conditions: Enzyme of Strain C11
Procedure: (§3) In the above experiment, no detectable amount of a lower molecular weight saccharide such as cyclotetrasaccharide detectable on TLC was formed from soluble starch, pullulan and dextran as high molecular glucans. The following test was carried out to confirm that the α-isomaltosyl-transferring enzyme of the present invention neither increase the reducing power of the above high molecular glucans nor hydrolyze them. To a solution of soluble starch, pullulan or dextran was added 12 units/g substrate of a purified specimen of α-isomaltosyl-transferring enzyme from either Bacillus globisporus C9 obtained by the method in Experiment 4, Bacillus globisporus C11 obtained by the method in Experiment 7, Bacillus globisporus N75 obtained by the method in Experiment 11, or Arthrobacter ramosus S1 obtained by the method in Experiment 15. […] The reducing saccharide contents and the total sugar contents in the resulting reaction mixtures after the enzymatic reactions were respectively quantified by the Somogyi-Nelson's method and the anthrone-sulfuric acid reaction method. The percentage of forming reducing power was calculated by the following equation, and the results are in Table 13:
(§4) [formula] [formula] AR: Reducing sugar content after enzymatic reaction. AT: Total sugar content after enzymatic reaction. BR: Reducing sugar content before enzymatic reaction. BT: Total sugar content before enzymatic reaction.

[9] = test system: α-isomaltosyl-transferring enzyme from Bacillus globisporus C9; assay: as above; conditions: Enzyme of Strain C9
Procedure: as §3, §4

[10] = test system: α-isomaltosyl-transferring enzyme from Arthrobacter ramosus S1; assay: as above; conditions: printed Enzyme of Strain N75 a second time
Procedure: (§5) In the above experiment, no detectable amount of a lower molecular weight saccharide such as cyclotetrasaccharide detectable on TLC was formed from soluble starch, pullulan and dextran as high molecular glucans. The following test was carried out to confirm that the α-isomaltosyl-transferring enzyme of the present invention neither increase the reducing power of the above high molecular glucans nor hydrolyze them. To a solution of soluble starch, pullulan or dextran was added 12 units/g substrate of a purified specimen of α-isomaltosyl-transferring enzyme from either Bacillus globisporus C9 obtained by the method in Experiment 4, Bacillus globisporus C11 obtained by the method in Experiment 7, Bacillus globisporus N75 obtained by the method in Experiment 11, or Arthrobacter ramosus S1 obtained by the method in Experiment 15. The resulting each solution was adjusted to give a substrate concentration of one percent (w/v) and incubated at 35° C. and pH 6.0 for four hours. The reducing saccharide contents and the total sugar contents in the resulting reaction mixtures after the enzymatic reactions were respectively quantified by the Somogyi-Nelson's method and the anthrone-sulfuric acid reaction method. The percentage of forming reducing power was calculated by the following equation, and the results are in Table 13:
as §4

[11] = test system: α-isomaltosyl-transferring enzyme from Bacillus globisporus N75; assay: as above; conditions: Enzyme of Strain N75
Procedure: as §5, §4

[12] = 0 hr, 12 units/g substrate, 1% (w/v), 35° C., pH 6.0

Row | Compound | Enzymatic action for forming cyclotetrasaccharide, Enzyme of Strain A19 [3] | Enzymatic action for forming cyclotetrasaccharide, Enzyme of Strain S1 [4] | Enzymatic action for forming cyclotetrasaccharide, Enzyme of Strain C11 [5] | Enzymatic action for forming cyclotetrasaccharide, Enzyme of Strain C9 [6] | Enzymatic action for forming cyclotetrasaccharide, Enzyme of Strain N75 [7] | Percentage of forming reducing power [8, 12] | Percentage of forming reducing power ([8]; 1 hr) | Percentage of forming reducing power ([8]; 2 hr) | Percentage of forming reducing power ([8]; 3 hr) | Percentage of forming reducing power ([8]; 4 hr) | Percentage of forming reducing power [9, 12] | Percentage of forming reducing power ([9]; 1 hr) | Percentage of forming reducing power ([9]; 2 hr) | Percentage of forming reducing power ([9]; 3 hr) | Percentage of forming reducing power ([9]; 4 hr) | Percentage of forming reducing power [10, 12] | Percentage of forming reducing power ([10]; 1 hr) | Percentage of forming reducing power ([10]; 2 hr) | Percentage of forming reducing power ([10]; 3 hr) | Percentage of forming reducing power ([10]; 4 hr) | also measured
1 | OC[C@H]1O[C@H](OC[C@H]2O[C@H](O[C@@H]3[C@@H](O)[C@@H](OC[C@H]4O[C@H](O[C@H]5[C@H](O)[C@@H](O)C(O)O[C@@H]5CO)[C@H](O)[C@@H](O)[C@@H]4O)O[C@H](CO)[C@H]3O)[C@H](O)[C@@H](O)[C@@H]2O)[C@H](O)[C@@H](O)[C@@H]1O (stereo partly drawn) [Component A, 3-O-α-isomaltosylpanose] |  |  |  |  |  |  |  |  |  |  |  |  |  |  |  |  |  |  |  |  | Saccharide composition, remaining Substrate [1]: 9.0%; Saccharide composition, Cyclotetrasaccharide [1]: 67.4%; Saccharide composition, Glucose [1]: 17.4%; Saccharide composition, Others [1]: 6.2%; Molar ratio of the formed glucose and cyclotetrasaccharide: cyclotetrasaccharide ([1]; numeral in parenthesis): (1.08); Molar ratio of the formed glucose and cyclotetrasaccharide: glucose ([1]; numeral in parenthesis): (1.00); Saccharide composition, remaining Substrate [2]: 9.3%; Saccharide composition, Cyclotetrasaccharide [2]: 67.6%; Saccharide composition, Glucose [2]: 17.2%; Saccharide composition, Others [2]: 5.9%; Molar ratio of the formed glucose and cyclotetrasaccharide: cyclotetrasaccharide ([2]; numeral in parenthesis): (1.09); Molar ratio of the formed glucose and cyclotetrasaccharide: glucose ([2]; numeral in parenthesis): (1.00)
2 | OC[C@H]1O[C@H](OC[C@H]2O[C@H](O[C@H]3[C@H](O)[C@@H](O)[C@@H](OC[C@H]4O[C@H](O[C@H]5[C@H](O)[C@@H](O)C(O)O[C@@H]5CO)[C@H](O)[C@@H](O)[C@@H]4O)O[C@@H]3CO)[C@H](O)[C@@H](O)[C@@H]2O)[C@H](O)[C@@H](O)[C@@H]1O (stereo partly drawn) [Component B, 4-O-α-isomaltosylpanose] |  |  |  |  |  |  |  |  |  |  |  |  |  |  |  |  |  |  |  |  | Saccharide composition, remaining Substrate [1]: 77.0%; Saccharide composition, Cyclotetrasaccharide [1]: 5.0%; Saccharide composition, Glucose [1]: 0.6%; Saccharide composition, Others [1]: 17.4%; Saccharide composition, remaining Substrate [2]: 77.1%; Saccharide composition, Cyclotetrasaccharide [2]: 5.1%; Saccharide composition, Glucose [2]: 0.7%; Saccharide composition, Others [2]: 17.1%
3 | dextran | − | − | − | − | − | 0.0% | 0.0% | 0.0% | 0.0% | 0.0% | 0.0% | 0.0% | 0.0% | 0.1% | 0.0% | 0.0% | 0.0% | 0.0% | 0.0% | 0.0% | Percentage of forming reducing power [11, 12]: 0.0%; Percentage of forming reducing power ([11]; 1 hr): 0.0%; Percentage of forming reducing power ([11]; 2 hr): 0.0%; Percentage of forming reducing power ([11]; 3 hr): 0.0%; Percentage of forming reducing power ([11]; 4 hr): 0.0%
4 | pullulan | − | − | − | − | − | 0.0% | 0.0% | 0.0% | 0.0% | 0.0% | 0.0% | 0.0% | 0.0% | 0.0% | 0.0% | 0.0% | 0.0% | 0.0% | 0.0% | 0.0% | Percentage of forming reducing power [11, 12]: 0.0%; Percentage of forming reducing power ([11]; 1 hr): 0.0%; Percentage of forming reducing power ([11]; 2 hr): 0.0%; Percentage of forming reducing power ([11]; 3 hr): 0.0%; Percentage of forming reducing power ([11]; 4 hr): 0.0%
5 | soluble starch | − | − | − | − | − | 0.0% | 0.1% | 0.0% | 0.0% | 0.0% | 0.0% | 0.0% | 0.0% | 0.0% | 0.0% | 0.0% | 0.0% | 0.0% | 0.0% | 0.0% | Percentage of forming reducing power [11, 12]: 0.0%; Percentage of forming reducing power ([11]; 1 hr): 0.0%; Percentage of forming reducing power ([11]; 2 hr): 0.0%; Percentage of forming reducing power ([11]; 3 hr): 0.0%; Percentage of forming reducing power ([11]; 4 hr): 0.0%
